The numbers were not newly measured in patent US11122828B2, “Microbial compositions comprising ellagitannin and methods of use” (MarvelBiome, Inc., priority 2018, dated 2021), which cites them from elsewhere.

For data set [1] the following is noted: plasma concentration up to micromolar (μM) levels.
A further data set has as its system colon cancer cells. The conditions noted are these: in vitro.
The test system of data set [2] is inflammatory markers including inducible nitric oxide synthase, cycloxygenase-2 (COX-2), prostaglandin E synthase and prostaglandin E2. The conditions noted are these: rat colitis model.

Where two headings read alike, the source gives them in different places.

Regarding `O=c1oc2cc(O)ccc2c2ccc(O)cc12` [urolithin A, 3,8-dihydroxyurolithin], the “toxic effects in vivo” value in data set [1] was “without any apparent toxic effects”. Further, the “proliferation of colon cancer cells” value in the data set on colon cancer cells is given as “inhibit proliferation”. Also, in data set [2], the “inflammatory markers in colonic mucosa” value is “decrease inflammatory markers”.

Turning to anthocyanins, the bioavailability (as a rule, dose-corrected exposure relative to a reference, in per cent) (in vivo) was 0.3%.

Take isoflavones: the bioavailability (estimated, phenols) was 43%.
